Assay results: patent publication US20220281848A1, “PYRAZOLE-SUBSTITUTED PYRROLIDINONES AS HERBICIDES” (FMC Corporation, priority 2019, published 2022)

Tested on: plants
Assay: Test D pre-emergence, other plants of Tables D1 and D3
Format: in vivo
Conditions: 20 DAA; for damage to plant (100=total damage to plant; 0=no damage to plant), BIDPI / damage to plant (100=total damage to plant; 0=no damage to plant), BRAPL / damage to plant (100=total damage to plant; 0=no damage to plant), CYPES / damage to plant (100=total damage to plant; 0=no damage to plant), EPHHL / damage to plant (100=total damage to plant; 0=no damage to plant), GLXMA / damage to plant (100=total damage to plant; 0=no damage to plant), IPOHE / damage to plant (100=total damage to plant; 0=no damage to plant), SORVU: preemergent; for CHEAL damage rating / GALAP damage rating / KCHSC damage rating / LOLPE damage rating / POAAN damage rating / STEME damage rating / VERPE damage rating: pre-emergence, 100=total damage, 0=no damage
Procedure, shortened: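 Seeds treated with herbicide safener; sown in soil; glasshouse, 16 h light, 65% humidity. Sprayed day 1 (pre) or ~day 12 (post). Spray in 0.2% v/v adjuvant. Scored 0–100 damage: 20 DAA pre, 15 d post.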

CN1CC(c2cc(C(F)(F)F)n(C)n2)C(C(=O)Nc2cccc(F)n2)C1=O (racemic) [Compound 24]
damage to plant (100=total damage to plant; 0=no damage to plant), BIDPI (rate 15): 0 | damage to plant (100=total damage to plant; 0=no damage to plant), BIDPI (rate 30): 0 | damage to plant (100=total damage to plant; 0=no damage to plant), BIDPI (rate 60): 0 | damage to plant (100=total damage to plant; 0=no damage to plant), BIDPI (rate 130): 0 | damage to plant (100=total damage to plant; 0=no damage to plant), BIDPI (rate 250): 0 | damage to plant (100=total damage to plant; 0=no damage to plant), BIDPI (rate 500): 0 | damage to plant (100=total damage to plant; 0=no damage to plant), BRAPL (rate 15): 0 | damage to plant (100=total damage to plant; 0=no damage to plant), BRAPL (rate 30): 20 | damage to plant (100=total damage to plant; 0=no damage to plant), BRAPL (rate 60): 30 | damage to plant (100=total damage to plant; 0=no damage to plant), BRAPL (rate 130): 80 | damage to plant (100=total damage to plant; 0=no damage to plant), BRAPL (rate 250): 80 | damage to plant (100=total damage to plant; 0=no damage to plant), BRAPL (rate 500): 90 | CHEAL damage rating (Rates 15): 0 | CHEAL damage rating (Rates 30): 0 | CHEAL damage rating (Rates 60): 0 | CHEAL damage rating (Rates 130): 0 | CHEAL damage rating (Rates 250): 40 | CHEAL damage rating (Rates 500): 50 | damage to plant (100=total damage to plant; 0=no damage to plant), CYPES (rate 15): 0 | damage to plant (100=total damage to plant; 0=no damage to plant), CYPES (rate 30): 0 | damage to plant (100=total damage to plant; 0=no damage to plant), CYPES (rate 60): 0 | damage to plant (100=total damage to plant; 0=no damage to plant), CYPES (rate 130): 0 | damage to plant (100=total damage to plant; 0=no damage to plant), CYPES (rate 250): 0 | damage to plant (100=total damage to plant; 0=no damage to plant), CYPES (rate 500): 0 | damage to plant (100=total damage to plant; 0=no damage to plant), EPHHL (rate 15): 0 | damage to plant (100=total damage to plant; 0=no damage to plant), EPHHL (rate 30): 0 | damage to plant (100=total damage to plant; 0=no damage to plant), EPHHL (rate 60): 0 | damage to plant (100=total damage to plant; 0=no damage to plant), EPHHL (rate 130): 0 | damage to plant (100=total damage to plant; 0=no damage to plant), EPHHL (rate 250): 0 | damage to plant (100=total damage to plant; 0=no damage to plant), EPHHL (rate 500): 10 | GALAP damage rating (Rates 15): 0 | GALAP damage rating (Rates 30): 0 | GALAP damage rating (Rates 60): 0 | GALAP damage rating (Rates 130): 0 | GALAP damage rating (Rates 250): 0 | GALAP damage rating (Rates 500): 0 | damage to plant (100=total damage to plant; 0=no damage to plant), GLXMA (rate 15): 0 | damage to plant (100=total damage to plant; 0=no damage to plant), GLXMA (rate 30): 0 | damage to plant (100=total damage to plant; 0=no damage to plant), GLXMA (rate 60): 0 | damage to plant (100=total damage to plant; 0=no damage to plant), GLXMA (rate 130): 0 | damage to plant (100=total damage to plant; 0=no damage to plant), GLXMA (rate 250): 0 | damage to plant (100=total damage to plant; 0=no damage to plant), GLXMA (rate 500): 0 | damage to plant (100=total damage to plant; 0=no damage to plant), IPOHE (rate 15): 0 | damage to plant (100=total damage to plant; 0=no damage to plant), IPOHE (rate 30): 0 | damage to plant (100=total damage to plant; 0=no damage to plant), IPOHE (rate 60): 0 | damage to plant (100=total damage to plant; 0=no damage to plant), IPOHE (rate 130): 0 | damage to plant (100=total damage to plant; 0=no damage to plant), IPOHE (rate 250): 0 | damage to plant (100=total damage to plant; 0=no damage to plant), IPOHE (rate 500): 0 | KCHSC damage rating (Rates 15): 0 | KCHSC damage rating (Rates 30): 0 | KCHSC damage rating (Rates 60): 0 | KCHSC damage rating (Rates 130): 0 | KCHSC damage rating (Rates 250): 0 | KCHSC damage rating (Rates 500): 10 | LOLPE damage rating (Rates 15): 0 | LOLPE damage rating (Rates 30): 0 | LOLPE damage rating (Rates 60): 0 | LOLPE damage rating (Rates 130): 0 | LOLPE damage rating (Rates 250): 0 | LOLPE damage rating (Rates 500): 10 | POAAN damage rating (Rates 15): 0 | POAAN damage rating (Rates 30): 0 | POAAN damage rating (Rates 60): 0 | POAAN damage rating (Rates 130): 0 | POAAN damage rating (Rates 250): 20 | POAAN damage rating (Rates 500): 40 | damage to plant (100=total damage to plant; 0=no damage to plant), SORVU (rate 15): 0 | damage to plant (100=total damage to plant; 0=no damage to plant), SORVU (rate 30): 0 | damage to plant (100=total damage to plant; 0=no damage to plant), SORVU (rate 60): 0 | damage to plant (100=total damage to plant; 0=no damage to plant), SORVU (rate 130): 0 | damage to plant (100=total damage to plant; 0=no damage to plant), SORVU (rate 250): 0 | damage to plant (100=total damage to plant; 0=no damage to plant), SORVU (rate 500): 0 | STEME damage rating (Rates 15): 0 | STEME damage rating (Rates 30): 0 | STEME damage rating (Rates 60): 0 | STEME damage rating (Rates 130): 0 | STEME damage rating (Rates 250): 10 | STEME damage rating (Rates 500): 70 | VERPE damage rating (Rates 15): 0 | VERPE damage rating (Rates 30): 0 | VERPE damage rating (Rates 60): 0 | VERPE damage rating (Rates 130): 0 | VERPE damage rating (Rates 250): 50 | VERPE damage rating (Rates 500): 60
